Tested on: chicken embryo
Test: Toxicity of graphene oxide and nano-Pt in chicken embryo (in ovo)
Details: in vivo
Procedure: Biological models: study was conducted on models: 1. Chicken embryo maintained by in ovo method, which above all allowed for fast, accurate and insightful observations of potential toxicity, especially embryotoxicity of graphene oxide and Pt nanoparticles of various concentrations. 2. Glioblastoma multiforme GM (U-87) cell lines in order to observe basic mechanisms occurring in the cells under the influence of graphene oxide and platinum nanoparticles and having selected the used experimental factors 3. Glioblastoma multiforme (U-87) tumour grown by in ovo method in order to confirm or reject the preliminary results. This study allowed for the final verification of formulated hypotheses.
Step I—preliminary study—determination of potential toxic properties of graphene oxide and nano-Pt in contact with a living organism (chicken embryo) • Determination of the influence of graphene oxide and nano-Pt on homeostasis of the organism of chicken embryo (survival rate, growth and development, biochemical and morphological indicators of blood, expression of selected genes, image of microstructure and ultrastructure of the brain, apoptosis/necrosis and others). […] The study indicated a potential antitumor effect of Pt nanoparticles and a low degree of toxicity.

graphene oxide
toxic effects on biochemical and morphological indicators of blood, FGF, VEGF, PCNA gene expression, microstructure and ultrastructure of brain and liver: does not exhibit toxic effects

From patent US10471095B2, “Suspension of graphene oxide nanoflakes in water, its use and a method of preparation thereof” (priority 2014, dated 2019)
